Experimental data from publication PMC6072100, “Exploring the links between peptoid antibacterial activity and toxicity” (MedChemComm, 2017).
Read-outs that look alike come from different tables or passages of the source. Square brackets hold non-standard residues; d marks the D form. Peptide text beside a SMILES is read from it. N(4-F-Bzl)Gly = O=C(O)CNCc1ccc(F)cc1; Gly(N-(CH2)6NH2) = NCCCCCCNCC(=O)O; Gly(N-2-aminoethyl) = NCCNCC(=O)O; Nspe = C[C@H](NCC(=O)O)c1ccccc1; Nphe = O=C(O)CNCc1ccccc1; Nlys = NCCCCNCC(=O)O

Tests used:
[1] = test system: HepG2 cells; assay: Cytotoxicity assay with HepG2 (alamarBlue); type: cell-based, human
Procedure, shortened: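 HepG2 cells (2 × 10^4/well, seeded 1 day earlier) were exposed to compounds (2–100 μM dilution series, triplicate) for 1 h in reduced volume, then diluted with medium and incubated 24 h at 37 °C. Viability was read by alamarBlue after 2 h (Ex 560/Em 600 nm), and ED50 (dose killing 50% of cells) came from dose-response curves.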

[2] = test system: HaCaT cells; assay: Skin cell toxicity assay with HaCaT (alamarBlue); type: cell-based, human
Procedure, shortened: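 HaCaT cells seeded at 2x10^4 per well 24 hours before 1-hour exposure to a 2–100 µM triplicate dilution series in DMEM high glucose with 10% FBS at 37 °C, 5% CO2. Viability assessed with alamarBlue; ED50 defined as dose killing 50% of cells, derived from dose-response data.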

[3] = human, HaCaT cells (keratinocytes), 24 h
[4] = dose that kills 50% of cells, 2–100 μM, 1 h with compound then 24 h, alamarBlue

SMILES	ED50 HepG2 ([1]; human, HepG2 cells, 24 h) [µM]	ED50 HaCaT [2, 3] [µM]	further results
NCCCCCCNCC(=O)N(CC(=O)N(CC(=O)N(CCCCCCN)CC(=O)N(CC(=O)N(CC(=O)N(CCCCCCN)CC(=O)N(CC(=O)N(CC(=O)N(CCCCCCN)CC(=O)N(CC(=O)N(CC(N)=O)Cc1ccccc1)Cc1ccccc1)Cc1ccccc1)Cc1ccccc1)Cc1ccccc1)Cc1ccccc1)Cc1ccccc1)Cc1ccccc1 [Peptoid 1, (NahNpheNphe)4] (H-[Gly(N-(CH2)6NH2)][Nphe][Nphe][Gly(N-(CH2)6NH2)][Nphe][Nphe][Gly(N-(CH2)6NH2)][Nphe][Nphe][Gly(N-(CH2)6NH2)][Nphe][Nphe]-NH2)	>100	>100	–
NCCCCCCNCC(=O)N(CC(=O)N(CC(=O)N(CCCCCCN)CC(=O)N(CC(=O)N(CC(=O)N(CCCCCCN)CC(=O)N(CC(=O)N(CC(N)=O)Cc1ccccc1)Cc1ccccc1)Cc1ccccc1)Cc1ccccc1)Cc1ccccc1)Cc1ccccc1 [Peptoid 2, (NahNpheNphe)3] (H-[Gly(N-(CH2)6NH2)][Nphe][Nphe][Gly(N-(CH2)6NH2)][Nphe][Nphe][Gly(N-(CH2)6NH2)][Nphe][Nphe]-NH2)	>100	>100	–
NCCCCCCNCC(=O)N(CC(=O)N(CC(=O)N(CCCCCCN)CC(=O)N(CC(=O)N(CC(N)=O)Cc1ccccc1)Cc1ccccc1)Cc1ccccc1)Cc1ccccc1 [Peptoid 3, (NahNpheNphe)2] (H-[Gly(N-(CH2)6NH2)][Nphe][Nphe][Gly(N-(CH2)6NH2)][Nphe][Nphe]-NH2)	>100	>100	–
NCCCCNCC(=O)N(CC(=O)N(CC(=O)N(CCCCN)CC(=O)N(CC(=O)N(CC(=O)N(CCCCN)CC(=O)N(CC(=O)N(CC(=O)N(CCCCN)CC(=O)N(CC(=O)N(CC(N)=O)Cc1ccccc1)Cc1ccccc1)Cc1ccccc1)Cc1ccccc1)Cc1ccccc1)Cc1ccccc1)Cc1ccccc1)Cc1ccccc1 [Peptoid 4, (NLysNpheNphe)4] (H-[Nlys][Nphe][Nphe][Nlys][Nphe][Nphe][Nlys][Nphe][Nphe][Nlys][Nphe][Nphe]-NH2)	>100	–	ED50 HepG2 [1]: > 100 µM; toxicity to HaCaT or HepG2 (in words) [2]: negligible toxicity
NCCCCNCC(=O)N(CC(=O)N(CC(=O)N(CCCCN)CC(=O)N(CC(=O)N(CC(=O)N(CCCCN)CC(=O)N(CC(=O)N(CC(N)=O)Cc1ccccc1)Cc1ccccc1)Cc1ccccc1)Cc1ccccc1)Cc1ccccc1)Cc1ccccc1 [Peptoid 5, (NLysNpheNphe)3]	>100	>100	–
NCCCCNCC(=O)N(CC(=O)N(CC(=O)N(CCCCN)CC(=O)N(CC(=O)N(CC(N)=O)Cc1ccccc1)Cc1ccccc1)Cc1ccccc1)Cc1ccccc1 [Peptoid 6, (NLysNpheNphe)2] (H-[Nlys][Nphe][Nphe][Nlys][Nphe][Nphe]-NH2)	>100	>100	–
NCCNCC(=O)N(CC(=O)N(CC(=O)N(CCN)CC(=O)N(CC(=O)N(CC(=O)N(CCN)CC(=O)N(CC(=O)N(CC(=O)N(CCN)CC(=O)N(CC(=O)N(CC(N)=O)Cc1ccccc1)Cc1ccccc1)Cc1ccccc1)Cc1ccccc1)Cc1ccccc1)Cc1ccccc1)Cc1ccccc1)Cc1ccccc1 [Peptoid 7, (NaeNpheNphe)4] (H-[Gly(N-2-aminoethyl)][Nphe][Nphe][Gly(N-2-aminoethyl)][Nphe][Nphe][Gly(N-2-aminoethyl)][Nphe][Nphe][Gly(N-2-aminoethyl)][Nphe][Nphe]-NH2)	>100	>100	toxicity to HaCaT or HepG2 (in words) [2]: negligible toxicity
NCCNCC(=O)N(CC(=O)N(CC(=O)N(CCN)CC(=O)N(CC(=O)N(CC(=O)N(CCN)CC(=O)N(CC(=O)N(CC(N)=O)Cc1ccccc1)Cc1ccccc1)Cc1ccccc1)Cc1ccccc1)Cc1ccccc1)Cc1ccccc1 [Peptoid 8, (NaeNpheNphe)3] (H-[Gly(N-2-aminoethyl)][Nphe][Nphe][Gly(N-2-aminoethyl)][Nphe][Nphe][Gly(N-2-aminoethyl)][Nphe][Nphe]-NH2)	>100	>100	–
NCCNCC(=O)N(CC(=O)N(CC(=O)N(CCN)CC(=O)N(CC(=O)N(CC(N)=O)Cc1ccccc1)Cc1ccccc1)Cc1ccccc1)Cc1ccccc1 [Peptoid 9, (NaeNpheNphe)2] (H-[Gly(N-2-aminoethyl)][Nphe][Nphe][Gly(N-2-aminoethyl)][Nphe][Nphe]-NH2)	>100	>100	–
C[C@@H](c1ccccc1)N(CC(N)=O)C(=O)CN(C(=O)CN(CCCCCCN)C(=O)CN(C(=O)CN(C(=O)CN(CCCCCCN)C(=O)CN(C(=O)CN(C(=O)CNCCCCCCN)[C@@H](C)c1ccccc1)[C@@H](C)c1ccccc1)[C@@H](C)c1ccccc1)[C@@H](C)c1ccccc1)[C@@H](C)c1ccccc1 [Peptoid 11, (NahNspeNspe)3] (H-[Gly(N-(CH2)6NH2)][Nspe][Nspe][Gly(N-(CH2)6NH2)][Nspe][Nspe][Gly(N-(CH2)6NH2)][Nspe][Nspe]-NH2)	>100	>100	–
C[C@@H](c1ccccc1)N(CC(N)=O)C(=O)CN(C(=O)CN(CCCCCCN)C(=O)CN(C(=O)CN(C(=O)CNCCCCCCN)[C@@H](C)c1ccccc1)[C@@H](C)c1ccccc1)[C@@H](C)c1ccccc1 [Peptoid 12, (NahNspeNspe)2]	>100	>100	–
C[C@@H](c1ccccc1)N(CC(N)=O)C(=O)CN(C(=O)CN(CCCCN)C(=O)CN(C(=O)CN(C(=O)CN(CCCCN)C(=O)CN(C(=O)CN(C(=O)CN(CCCCN)C(=O)CN(C(=O)CN(C(=O)CNCCCCN)[C@@H](C)c1ccccc1)[C@@H](C)c1ccccc1)[C@@H](C)c1ccccc1)[C@@H](C)c1ccccc1)[C@@H](C)c1ccccc1)[C@@H](C)c1ccccc1)[C@@H](C)c1ccccc1 [Peptoid 13, (NLysNspeNspe)4] (H-[Nlys][Nspe][Nspe][Nlys][Nspe][Nspe][Nlys][Nspe][Nspe][Nlys][Nspe][Nspe]-NH2)	–	–	ED50 HepG2 [1, 4]: 29 µM; ED50 HaCaT [2, 4]: 20 µM
C[C@@H](c1ccccc1)N(CC(N)=O)C(=O)CN(C(=O)CN(CCCCN)C(=O)CN(C(=O)CN(C(=O)CN(CCCCN)C(=O)CN(C(=O)CN(C(=O)CNCCCCN)[C@@H](C)c1ccccc1)[C@@H](C)c1ccccc1)[C@@H](C)c1ccccc1)[C@@H](C)c1ccccc1)[C@@H](C)c1ccccc1 [Peptoid 14, (NLysNspeNspe)3] (H-[Nlys][Nspe][Nspe][Nlys][Nspe][Nspe][Nlys][Nspe][Nspe]-NH2)	–	–	ED50 HepG2 [1, 4]: >100 µM; ED50 HaCaT [2, 4]: >100 µM
C[C@@H](c1ccccc1)N(CC(N)=O)C(=O)CN(C(=O)CN(CCCCN)C(=O)CN(C(=O)CN(C(=O)CNCCCCN)[C@@H](C)c1ccccc1)[C@@H](C)c1ccccc1)[C@@H](C)c1ccccc1 [Peptoid 15, (NLysNspeNspe)2] (H-[Nlys][Nspe][Nspe][Nlys][Nspe][Nspe]-NH2)	>100	>100	–
C[C@@H](c1ccccc1)N(CC(N)=O)C(=O)CN(C(=O)CN(CCN)C(=O)CN(C(=O)CN(C(=O)CN(CCN)C(=O)CN(C(=O)CN(C(=O)CNCCN)[C@@H](C)c1ccccc1)[C@@H](C)c1ccccc1)[C@@H](C)c1ccccc1)[C@@H](C)c1ccccc1)[C@@H](C)c1ccccc1 [Peptoid 17, (NaeNspeNspe)3]	–	–	ED50 HepG2 [1, 4]: >100 µM; ED50 HaCaT [2, 4]: >100 µM
C[C@@H](c1ccccc1)N(CC(N)=O)C(=O)CN(C(=O)CN(CCN)C(=O)CN(C(=O)CN(C(=O)CNCCN)[C@@H](C)c1ccccc1)[C@@H](C)c1ccccc1)[C@@H](C)c1ccccc1 [Peptoid 18, (NaeNspeNspe)2]	>100	>100	–
COc1ccc(CN(CC(N)=O)C(=O)CN(Cc2ccc(OC)cc2)C(=O)CN(CCCCN)C(=O)CN(Cc2ccc(OC)cc2)C(=O)CN(Cc2ccc(OC)cc2)C(=O)CN(CCCCN)C(=O)CN(Cc2ccc(OC)cc2)C(=O)CN(Cc2ccc(OC)cc2)C(=O)CN(CCCCN)C(=O)CN(Cc2ccc(OC)cc2)C(=O)CN(Cc2ccc(OC)cc2)C(=O)CNCCCCN)cc1 [Peptoid 19, (NLysNpmbNpmb)4]	>100	–	–
NCCCCNCC(=O)N(CC(=O)N(CC(=O)N(CCCCN)CC(=O)N(CC(=O)N(CC(=O)N(CCCCN)CC(=O)N(CC(=O)N(CC(=O)N(CCCCN)CC(=O)N(CC(=O)N(CC(N)=O)Cc1ccc(F)cc1)Cc1ccc(F)cc1)Cc1ccc(F)cc1)Cc1ccc(F)cc1)Cc1ccc(F)cc1)Cc1ccc(F)cc1)Cc1ccc(F)cc1)Cc1ccc(F)cc1 [Peptoid 22, (NLysNpfbNpfb)4] (H-[Nlys][N(4-F-Bzl)Gly][N(4-F-Bzl)Gly][Nlys][N(4-F-Bzl)Gly][N(4-F-Bzl)Gly][Nlys][N(4-F-Bzl)Gly][N(4-F-Bzl)Gly][Nlys][N(4-F-Bzl)Gly][N(4-F-Bzl)Gly]-NH2)	–	–	ED50 HepG2 [1]: 30 µM; ED50 HaCaT [2]: 46 µM
NCCCCNCC(=O)N(CC(=O)N(CC(=O)N(CCCCN)CC(=O)N(CC(=O)N(CC(=O)N(CCCCN)CC(=O)N(CC(=O)N(CC(N)=O)Cc1ccc(F)cc1)Cc1ccc(F)cc1)Cc1ccc(F)cc1)Cc1ccc(F)cc1)Cc1ccc(F)cc1)Cc1ccc(F)cc1 [Peptoid 23, (NLysNpfbNpfb)3] (H-[Nlys][N(4-F-Bzl)Gly][N(4-F-Bzl)Gly][Nlys][N(4-F-Bzl)Gly][N(4-F-Bzl)Gly][Nlys][N(4-F-Bzl)Gly][N(4-F-Bzl)Gly]-NH2)	–	>100	toxicity to HaCaT or HepG2 (in words) [2]: negligible toxicity
